In publication PMC12652222 (International Journal of Molecular Sciences, 2025):
Several values for one entry are separate records, joined by “and”; a condition that tells them apart may be missing. Equal entries are not always repeated.

Experiments:
[1] = Total antioxidant capacity (TAC); assay type: biochemical; conditions: mean ± SE, n = 3
Description: (§1) The antioxidant activity was assessed using the iron reducing power (IRP) and the total antioxidant capacity (TAC). Ascorbic acid served as a standard to calculate the inhibition percentages (%) and the median inhibitory concentration (IC50) of each tested compound against the following radicals: nitric oxide (NO), hydroxyl (OH), hydrogen peroxide (H2O2), ABTS [79], and DPPH [80].

[2] = Iron-reducing power (IRP); assay type: biochemical; conditions: mean ± SE, n = 3
Description: as §1

DPPH radical scavenging = assay type: biochemical; conditions: mean ± SE, n = 3; for DPPH (%): inhibition % at 20 µg/mL
Description: as §1

ABTS radical scavenging = assay type: biochemical; conditions: mean ± SE, n = 3; for ABTS (%): inhibition % at 20 µg/mL
Description: as §1

[3] = Nitric oxide (NO) radical scavenging; assay type: biochemical; conditions: mean ± SE, n = 3; for NO (%): inhibition % at 20 µg/mL
Description: as §1

[4] = Hydroxyl (OH) radical scavenging; assay type: biochemical; conditions: mean ± SE, n = 3; for OH (%): inhibition % at 20 µg/mL
Description: as §1

[5] = Hydrogen peroxide (H2O2) scavenging; assay type: biochemical; conditions: mean ± SE, n = 3; for H2O2 (%): inhibition % at 20 µg/mL
Description: as §1

[6] = biological target: acetylcholinesterase (AChE) (Homo sapiens, UniProt P22303); test: biochemical; conditions: mean ± SE, n = 3; for IC50: read-out: AChE IC50 (µg/mL) (converted)
acetylcholinesterase (AChE), sequence (P22303 32-614, species assumed): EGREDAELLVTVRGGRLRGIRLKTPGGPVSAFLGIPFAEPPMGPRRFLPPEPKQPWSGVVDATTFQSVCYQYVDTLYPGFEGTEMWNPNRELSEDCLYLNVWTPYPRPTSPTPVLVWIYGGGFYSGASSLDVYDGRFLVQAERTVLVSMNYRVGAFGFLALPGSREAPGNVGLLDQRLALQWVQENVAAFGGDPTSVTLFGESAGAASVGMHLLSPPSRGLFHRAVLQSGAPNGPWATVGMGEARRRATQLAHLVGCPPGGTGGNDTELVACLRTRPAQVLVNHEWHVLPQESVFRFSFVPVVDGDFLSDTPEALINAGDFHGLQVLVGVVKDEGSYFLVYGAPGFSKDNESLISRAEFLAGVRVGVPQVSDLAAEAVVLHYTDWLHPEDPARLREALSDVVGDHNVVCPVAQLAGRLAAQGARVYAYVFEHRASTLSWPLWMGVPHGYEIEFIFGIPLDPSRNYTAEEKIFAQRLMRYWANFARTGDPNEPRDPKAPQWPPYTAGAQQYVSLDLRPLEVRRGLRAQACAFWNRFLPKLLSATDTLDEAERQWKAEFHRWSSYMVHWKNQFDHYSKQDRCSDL
Description: The inhibition percentage and IC50 of the acetylcholinesterase (AChE) enzyme were measured using the Ellman method.

protein denaturation = test: Protein denaturation inhibition (anti-arthritic); assay type: biochemical; parameters: concentration or dose not given beside the values; conditions: mean ± SE, n = 3
Description: (§2) Anti-arthritic activity was evaluated using diclofenac sodium as the reference drug. The inhibition percentage and IC50 were determined for protein denaturation and the proteinase enzyme.

proteinase enzyme = test: Proteinase inhibition (anti-arthritic); assay type: biochemical; parameters: Proteinase Inhibition (%): concentration or dose not given beside the values; conditions: mean ± SE, n = 3
Description: as §2

α-amylase = biological target: T1, α-amylase (Homo sapiens, UniProt P04746); test: α-Amylase inhibition; assay type: biochemical; conditions: for inhibition at 20 µg/mL: read-out: α-Amylase Inhibition (%)
T1 sequence (P04746 16-511): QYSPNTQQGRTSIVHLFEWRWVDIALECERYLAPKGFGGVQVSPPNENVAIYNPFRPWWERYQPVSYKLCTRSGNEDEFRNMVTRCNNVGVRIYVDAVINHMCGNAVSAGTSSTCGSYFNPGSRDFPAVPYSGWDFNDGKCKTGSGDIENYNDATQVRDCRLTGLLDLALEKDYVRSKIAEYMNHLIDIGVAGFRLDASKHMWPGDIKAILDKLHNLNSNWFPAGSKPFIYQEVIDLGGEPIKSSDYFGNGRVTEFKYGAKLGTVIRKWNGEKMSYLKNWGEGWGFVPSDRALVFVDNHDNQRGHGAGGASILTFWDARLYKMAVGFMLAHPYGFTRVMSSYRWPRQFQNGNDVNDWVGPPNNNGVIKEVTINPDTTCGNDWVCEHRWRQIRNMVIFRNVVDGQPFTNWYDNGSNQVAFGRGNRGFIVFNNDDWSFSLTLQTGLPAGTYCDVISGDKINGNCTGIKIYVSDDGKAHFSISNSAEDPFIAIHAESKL
Description: (§3) The IC50 and inhibition percentages (Inhib. %) of the enzymes α-amylase and α-glucosidase were calculated.

α-glucosidase = test: α-Glucosidase inhibition; assay type: biochemical
Description: as §3

Row | SMILES | TAC (mg Gallic Acid/g) [1] | IRP [2] | DPPH (%) (DPPH radical scavenging) | DPPH radical scavenging IC50 (DPPH radical scavenging) [µg/mL] | ABTS (%) (ABTS radical scavenging) | ABTS radical scavenging IC50 (ABTS radical scavenging) [µg/mL] | NO (%) [3] [%] | NO radical scavenging IC50 [3] [µg/mL] | OH (%) [4] [%] | OH radical scavenging IC50 [4] [µg/mL] | H2O2 (%) [5] [%] | H2O2 scavenging IC50 [5] [µg/mL] | inhibition at 20 µg/mL [6] [%] | IC50 [6] [µM] | Protein Denaturation Inhibition (%) (protein denaturation) | Proteinase IC50 (proteinase enzyme) [µg/mL] | Proteinase Inhibition (%) (proteinase enzyme) | inhibition at 20 µg/mL (α-amylase) [%] | α-Glucosidase IC50 (α-glucosidase) [µg/mL] | also measured
1 | O=c1/c(=C\[C@@H](O)[C@@H](O)[C@H](O)[C@H](O)CO)sc2nc3sc4c(c3c(=O)n12)CCC4 [7b, (E)-2-((2R,3R,4R,5R)-2,3,4,5,6-pentahydroxyhexylidene)-7,8-dihydro-5H,6H-cyclopenta [4,5]thieno [2,3-d]thiazolo [3,2-a]pyrimidine-3,5(2H)-dione] | 21.59 ± 0.25 mg Gallic Acid/g | 14.44 ± 0.25 µg/mL | 18.19 ± 0.25 | 21.36 ± 0.44 | 21.34 ± 0.25 | 15.17 ± 0.15 | 12.44 ± 0.25 | 32.58 ± 0.96 | 10.82 ± 0.21 | 43.75 ± 0.52 | 12.12 ± 0.24 | 48.67 ± 0.85 | 5.14 ± 0.16 | 131 | 15.06 ± 0.20 | 42.61 ± 0.37 | 10.89 ± 0.20 | 17.3 ± 0.24 | 19.96 ± 0.34 | 
2 | O=c1/c(=C\[C@@H](O)[C@@H](O)[C@H](O)[C@H](O)CO)sc2nc3sc4c(c3c(=O)n12)CCCC4 [8b, (E)-2-((2R,3R,4R,5R)-2,3,4,5,6-pentahydroxyhexylidene)-6,7,8,9-tetrahydro-5H-benzo-[4,5]thieno [2,3-d]thiazolo [3,2-a]pyrimidine-3,5(2H)-dione] | 68.01 mg Gallic Acid/g and 68.01 ± 0.78 mg Gallic Acid/g | 60.86 µg/mL and 60.86 ± 0.78 µg/mL |  | 6.01 ± 0.12 |  | 4.78 ± 0.05 |  | 6.88 ± 0.16 |  | 9.24 ± 0.05 |  | 10.28 ± 0.12 | 5.19 ± 0.16 | 126 | 11.80 ± 0.19 | 65.93 ± 2.02 | 7.63 ± 0.19 | 61.5 ± 0.74 | 3.85 ± 0.05 | IC50 (α-amylase): 15.4 µM; inhibition of α-glucosidase (α-glucosidase; at 20 µg/mL): 54.78 ± 0.74%
3 | O=c1/c(=C\[C@@H](O)[C@H](O)[C@H](O)CO)sc2nc3sc4c(c3c(=O)n12)CCC4 [7e, (E)-2-((2R,3S,4R)-2,3,4,5-tetrahydroxypentylidene)-7,8-dihydro-5H,6H-cyclopenta [4,5]thieno [2,3-d]thiazolo [3,2-a]-pyrimidine-3,5(2H)-dione] | 18.77 ± 0.21 mg Gallic Acid/g | 11.62 ± 0.21 µg/mL | 15.37 ± 0.21 | 25.27 ± 0.54 | 18.52 ± 0.21 | 17.47 ± 0.17 | 9.62 ± 0.21 | 42.12 ± 1.33 | 8.37 ± 0.19 | 56.57 ± 0.81 | 9.37 ± 0.21 | 62.92 ± 1.25 | 4.11 ± 0.13 | 176 | 12.73 ± 0.18 | 54.22 ± 0.58 | 8.56 ± 0.18 | 14.6 ± 0.2 | 26.75 ± 0.52 | 
4 | O=c1/c(=C\[C@H](O)[C@@H](O)[C@@H](O)[C@H](O)CO)sc2nc3sc4c(c3c(=O)n12)CCCC4 [8c, (E)-2-((2S,3R,4S,5R)-2,3,4,5,6-pentahydroxyhexylidene)-6,7,8,9-tetrahydro-5H-benzo [4,5]-thieno [2,3-d]thiazolo [3,2-a]-pyrimidine-3,5(2H)-dione] | 15.90 ± 0.20 mg Gallic Acid/g | 8.75 ± 0.20 µg/mL | 12.50 ± 0.20 | 31.07 ± 0.34 | 15.65 ± 0.20 | 20.68 ± 0.24 | 6.75 ± 0.20 | 60.02 ± 1.12 | 5.87 ± 0.17 | 80.74 ± 2.84 | 6.58 ± 0.20 | 89.75 ± 2.32 | 5.93 ± 0.19 | 110 | 10.35 ± 0.17 | 75.16 ± 2.30 | 6.18 ± 0.17 | 11.9 ± 0.19 | 41.00 ± 1.33 | 
